Measured values reported in US10479795B2 (Incyte Corporation, priority 2016, dated 2019).
Counter-ions that a name gives are not always drawn.

Experiments:
[1] = target: PI3Kδ (p110δ/p85α) Recombinant Human Protein (Homo sapiens (Human), UniProt O00329); assay: PI3Kδ Scintillation Proximity Assay; format: biochemical
Method in brief: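 Kinase reaction run at room temperature in 20 mM MOPS pH 6.7, 10 mM MgCl2, 5 mM DTT, 0.03% CHAPS with 20 μM PIP2, 2 μM ATP plus [γ-33P]ATP, 3.4 nM enzyme, 2% DMSO; 120 min. Quenched with WGA SPA beads/EDTA, counted by scintillation; IC50 from % solvent-control activity vs log concentration.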

[2] = target: PI3Kγ (p110γ) Recombinant Human Protein (Homo sapiens (Human), UniProt P48736); assay: PI3K-γ Scintillation Proximity Assay; format: biochemical; conditions: read-out: PI3Kγ IC50
Method in brief: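 Recombinant human p110γ assayed at room temperature in 20 mM MOPS pH 6.7, 10 mM MgCl2, 5 mM DTT, 0.03% CHAPS, 2% DMSO, with 20 μM PIP2 and 2 μM ATP plus [γ-33P]ATP. Product captured on WGA SPA beads overnight and counted; IC50 fitted from % of solvent-control activity versus log inhibitor concentration.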

Chain of PI3Kδ (p110δ/p85α) Recombinant Human Protein (O00329 whole entry): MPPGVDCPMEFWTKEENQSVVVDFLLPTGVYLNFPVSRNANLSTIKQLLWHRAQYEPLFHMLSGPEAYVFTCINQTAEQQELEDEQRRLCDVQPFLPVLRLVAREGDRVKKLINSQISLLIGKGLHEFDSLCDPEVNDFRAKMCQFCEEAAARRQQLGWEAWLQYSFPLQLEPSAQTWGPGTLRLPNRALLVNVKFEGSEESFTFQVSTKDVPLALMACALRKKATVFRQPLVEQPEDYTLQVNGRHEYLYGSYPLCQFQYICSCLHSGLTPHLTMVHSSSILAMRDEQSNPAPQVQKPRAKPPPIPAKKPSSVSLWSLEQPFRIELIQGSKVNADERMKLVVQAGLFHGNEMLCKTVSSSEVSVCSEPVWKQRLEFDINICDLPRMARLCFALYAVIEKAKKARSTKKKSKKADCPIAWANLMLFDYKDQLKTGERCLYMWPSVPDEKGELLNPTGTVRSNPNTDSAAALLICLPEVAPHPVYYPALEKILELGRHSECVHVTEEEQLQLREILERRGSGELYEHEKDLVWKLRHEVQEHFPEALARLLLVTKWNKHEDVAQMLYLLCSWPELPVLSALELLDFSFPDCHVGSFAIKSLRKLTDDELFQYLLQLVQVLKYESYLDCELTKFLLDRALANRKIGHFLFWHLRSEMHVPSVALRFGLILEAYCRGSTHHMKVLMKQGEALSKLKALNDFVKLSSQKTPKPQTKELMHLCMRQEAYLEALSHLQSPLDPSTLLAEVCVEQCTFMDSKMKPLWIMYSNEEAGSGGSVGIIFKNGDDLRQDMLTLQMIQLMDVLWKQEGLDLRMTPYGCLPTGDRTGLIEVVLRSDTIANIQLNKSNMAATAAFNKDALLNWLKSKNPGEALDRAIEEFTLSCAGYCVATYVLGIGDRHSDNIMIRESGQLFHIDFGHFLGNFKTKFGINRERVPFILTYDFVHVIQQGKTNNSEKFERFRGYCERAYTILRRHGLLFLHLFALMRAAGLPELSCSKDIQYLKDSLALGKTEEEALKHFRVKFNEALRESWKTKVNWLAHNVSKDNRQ
Chain of PI3Kδ (p110δ/p85α) Recombinant Human Protein (P27986 whole entry partner): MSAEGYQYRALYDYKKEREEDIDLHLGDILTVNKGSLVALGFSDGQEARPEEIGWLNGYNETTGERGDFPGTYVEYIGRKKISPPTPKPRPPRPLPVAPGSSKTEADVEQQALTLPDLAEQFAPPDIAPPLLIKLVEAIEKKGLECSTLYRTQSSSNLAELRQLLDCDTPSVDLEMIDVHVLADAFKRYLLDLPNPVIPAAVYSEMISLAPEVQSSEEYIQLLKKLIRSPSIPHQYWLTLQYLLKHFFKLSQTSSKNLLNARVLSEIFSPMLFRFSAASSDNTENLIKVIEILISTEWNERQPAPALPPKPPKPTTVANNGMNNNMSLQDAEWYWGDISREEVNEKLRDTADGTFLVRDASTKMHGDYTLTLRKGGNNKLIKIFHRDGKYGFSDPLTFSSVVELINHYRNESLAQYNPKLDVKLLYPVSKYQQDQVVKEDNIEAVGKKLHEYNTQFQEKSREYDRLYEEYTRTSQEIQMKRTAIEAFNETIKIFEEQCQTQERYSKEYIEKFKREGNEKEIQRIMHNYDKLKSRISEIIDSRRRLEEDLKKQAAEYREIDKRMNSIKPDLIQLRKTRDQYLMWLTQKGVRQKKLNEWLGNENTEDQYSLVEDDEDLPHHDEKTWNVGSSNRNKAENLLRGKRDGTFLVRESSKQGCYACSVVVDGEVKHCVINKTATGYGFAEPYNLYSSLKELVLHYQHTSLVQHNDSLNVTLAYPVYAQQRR
Chain of PI3Kγ (p110γ) Recombinant Human Protein (P48736 whole entry): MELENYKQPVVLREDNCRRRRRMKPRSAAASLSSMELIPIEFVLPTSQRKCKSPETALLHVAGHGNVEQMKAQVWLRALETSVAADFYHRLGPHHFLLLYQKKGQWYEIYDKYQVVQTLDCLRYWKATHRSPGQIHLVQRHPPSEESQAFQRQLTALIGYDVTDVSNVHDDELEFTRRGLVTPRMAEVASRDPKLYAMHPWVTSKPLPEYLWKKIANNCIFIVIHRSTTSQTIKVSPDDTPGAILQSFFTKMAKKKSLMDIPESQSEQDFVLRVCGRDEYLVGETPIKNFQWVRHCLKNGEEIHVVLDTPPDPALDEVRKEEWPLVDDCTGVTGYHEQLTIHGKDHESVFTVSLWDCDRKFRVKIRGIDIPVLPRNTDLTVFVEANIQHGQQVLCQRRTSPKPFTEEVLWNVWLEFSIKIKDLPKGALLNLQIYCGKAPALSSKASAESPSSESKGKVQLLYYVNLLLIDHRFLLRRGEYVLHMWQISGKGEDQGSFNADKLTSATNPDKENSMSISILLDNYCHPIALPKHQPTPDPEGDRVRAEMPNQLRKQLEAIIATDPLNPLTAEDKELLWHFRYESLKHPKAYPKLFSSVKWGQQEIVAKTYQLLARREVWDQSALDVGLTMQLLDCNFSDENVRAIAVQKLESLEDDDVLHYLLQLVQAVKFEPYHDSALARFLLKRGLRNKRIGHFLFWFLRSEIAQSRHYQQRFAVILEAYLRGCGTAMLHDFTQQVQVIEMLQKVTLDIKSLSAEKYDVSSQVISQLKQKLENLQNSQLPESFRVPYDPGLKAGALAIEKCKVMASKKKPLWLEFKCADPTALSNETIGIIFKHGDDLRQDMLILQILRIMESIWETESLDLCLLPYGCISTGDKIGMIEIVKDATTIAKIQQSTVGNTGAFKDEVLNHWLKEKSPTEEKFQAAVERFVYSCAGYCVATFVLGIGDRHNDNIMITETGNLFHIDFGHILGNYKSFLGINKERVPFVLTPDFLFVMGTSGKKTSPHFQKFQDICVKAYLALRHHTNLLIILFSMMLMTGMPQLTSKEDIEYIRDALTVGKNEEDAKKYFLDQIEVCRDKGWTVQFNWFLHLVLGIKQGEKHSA

| SMILES | IC50 [1] | IC50 [2] |
| --- | --- | --- |
| CC(C)(O)CNS(=O)(=O)c1ccc(C(F)(F)F)c(-c2cnc3c(N)nc(C(F)(F)F)cn23)c1 [Example 407, 3-(8-amino-6-(trifluoromethyl)imidazo[1,2-a]pyrazin-3-yl)-N-(2-hydroxy-2-methylpropyl)-4-(trifluoromethyl)benzenesulfonamide] | > 2000 nM | 500 to 2000 nM |
| Nc1ncnn2c(-c3ccc(F)c(S(=O)(=O)NC45CCC(CO)(C4)C5)c3)cnc12 [Example 366, 5-(4-Aminoimidazo[1,2-f][1,2,4]triazin-7-yl)-2-fluoro-N-(4-(hydroxymethyl)bicyclo[2.1.1]hexan-1-yl)benzenesulfonamide trifluoroacetate salt] | 100 to 500 nM | < 100 nM |
| Cc1ccc(S(=O)(=O)N2CCCC(NC(=O)OC(C)(C)C)C2)cc1-c1cnc2c(N)nc(C(F)(F)F)cn12 (centres unmarked) [Example 515, tert-Butyl (1-((3-(8-amino-6-(trifluoromethyl)imidazo[1,2-a]pyrazin-3-yl)-4-methylphenyl)sulfonyl)piperidin-3-yl)carbamate] | > 2000 nM | 100 to 500 nM |
| Cc1ccc(S(=O)(=O)N2CCC(O)C3(CC3)C2)cc1-c1cnc2c(N)ncnn12 (centres unmarked) [Example 119, 5-{[3-(4-aminoimidazo[2,1-f][1,2,4]triazin-7-yl)-4-methylphenyl]sulfonyl}-5-azaspiro[2.5]octan-8-ol] | > 2000 nM | 100 to 500 nM |
| Nc1ncnn2c(-c3cccc(S(=O)(=O)NC45CCC(CO)(C4)C5)c3)cnc12 [Example 368, 3-(4-Aminoimidazo[1,2-f][1,2,4]triazin-7-yl)-N-(4-(hydroxymethyl)bicyclo[2.1.1]hexan-1-yl)benzenesulfonamide trifluoroacetate salt] | 100 to 500 nM | < 100 nM |
| Cc1ccc(S(=O)(=O)N2C3CCC2CC(N2CCOCC2)C3)cc1-c1cnc2c(N)ncnn12 (centres unmarked) [Example 169, 7-(2-methyl-5-((3-morpholino-8-azabicyclo[3.2.1]octan-8-yl)sulfonyl)phenyl)imidazo[2,1-f][1,2,4]triazin-4-amine] | > 2000 nM | 100 to 500 nM |
| Cc1ccc(S(=O)(=O)N[C@H]2C[C@H](C#N)C2)cc1-c1cnc2c(N)ncnn12 [Example 370, 3-(4-Aminoimidazo[2,1-f][1,2,4]triazin-7-yl)-N-((1r,3r)-3-cyanocyclobutyl)-4-(methyl-d3)benzenesulfonamide trifluoroacetate salt] | 100 to 500 nM | < 100 nM |
| Cc1ccc(S(=O)(=O)N(C)CC2(CO)CCC2)cc1-c1cnc2c(N)ncnn12 [Example 178, 3-(4-aminoimidazo[2,1-f][1,2,4]triazin-7-yl)-N-((1-(hydroxymethyl)cyclobutyl)methyl)-N,4-dimethylbenzenesulfonamide] | 500 to 2000 nM | < 100 nM |
| Cc1ccc(S(=O)(=O)NCC2CCOC2)cc1-c1cnc2c(N)ncnn12 (centres unmarked) [Example 67, 3-(4-Aminoimidazo[2,1-f][1,2,4]triazin-7-yl)-4-methyl-N-(tetrahydrofuran-3-ylmethyl)benzenesulfonamide] | > 2000 nM | 100 to 500 nM |
| Cc1ccc(S(=O)(=O)N(C)CCC#N)cc1-c1cnc2c(N)ncnn12 [Example 154, 3-(4-aminoimidazo[2,1-f][1,2,4]triazin-7-yl)-N-(2-cyanoethyl)-N,4-dimethylbenzenesulfonamide] | > 2000 nM | < 100 nM |

Other lines, results leading:

| IC50 [1] | IC50 [2] | SMILES |
| --- | --- | --- |
| 100 to 500 nM | > 2000 nM | CCN(CC)CCCCNC(=O)c1cn2c(-c3cc(S(C)(=O)=O)ccc3C)cnc2c(N)n1 [Example 452, 8-Amino-N-(4-(diethylamino)butyl)-3-(2-methyl-5-(methylsulfonyl)phenyl)imidazo[1,2-a]pyrazine-6-carboxamide trifluoroacetate salt] |
| 500 to 2000 nM | < 100 nM | Cc1ccc(S(=O)(=O)N2CCCC2c2c(C)noc2C)cc1-c1cnc2c(N)ncnn12 (centres unmarked) [Example 168, 7-(5-((2-(3,5-dimethylisoxazol-4-yl)pyrrolidin-1-yl)sulfonyl)-2-methylphenyl)imidazo[2,1-f][1,2,4]triazin-4-amine] |
| 100 to 500 nM | < 100 nM | Cc1ccc(S(=O)(=O)N2CCS(=O)(=O)CC2)cc1-c1cnc2c(N)ncnn12 [Example 161, 4-((3-(4-aminoimidazo[2,1-f][1,2,4]triazin-7-yl)-4-methylphenyl)sulfonyl)thiomorpholine 1,1-dioxide] |
| 500 to 2000 nM | < 100 nM | CCCN(CC1CC1)S(=O)(=O)c1ccc(C)c(-c2cnc3c(N)ncnn23)c1 [Example 164, 3-(4-aminoimidazo[2,1-f][1,2,4]triazin-7-yl)-N-(cyclopropylmethyl)-4-methyl-N-propylbenzenesulfonamide] |
| 500 to 2000 nM | < 100 nM | Cc1ccc(S(=O)(=O)N2CCN(C)C(=O)C2)cc1-c1cnc2c(N)nc(C(F)(F)F)cn12 [Example 298, 4-((3-(8-amino-6-(trifluoromethyl)imidazo[1,2-a]pyrazin-3-yl)-4-methylphenyl)sulfonyl)-1-methylpiperazin-2-one] |
| 500 to 2000 nM | < 100 nM | Cc1ccc(S(=O)(=O)N2CCC(F)(F)C(O)C2)cc1-c1cnc2c(N)ncnn12 (centres unmarked) [Example 196, 1-((3-(4-Aminoimidazo[2,1-f][1,2,4]triazin-7-yl)-4-methylphenyl)sulfonyl)-4,4-difluoropiperidin-3-ol] |
| 500 to 2000 nM | 100 to 500 nM | Cc1ccc(S(=O)(=O)N2CCC(N(C)C)C2)cc1-c1cnc2c(N)ncnn12 (centres unmarked) [Example 204, 7-(5-((3-(Dimethylamino)pyrrolidin-1-yl)sulfonyl)-2-methylphenyl)imidazo[2,1-f][1,2,4]triazin-4-amine] |
| 500 to 2000 nM | < 100 nM | N#Cc1ccc(S(=O)(=O)NC23CCC(C#N)(C2)C3)cc1-c1cnc2c(N)ncnn12 [Example 260, 3-(4-Aminoimidazo[2,1-f][1,2,4]triazin-7-yl)-4-cyano-N-(4-cyanobicyclo[2.1.1]hexan-1-yl)benzenesulfonamide trifluoroacetate salt] |
| 500 to 2000 nM | 100 to 500 nM | Cc1ccc(S(=O)(=O)N2CC3C(O)C2CN3C(C)C)cc1-c1cnc2c(N)nc(C(F)(F)F)nn12 (centres unmarked) [Example 350, 2-((3-(4-amino-2-(trifluoromethyl)imidazo[2,1-f][1,2,4]triazin-7-yl)-4-methylphenyl)sulfonyl)-5-isopropyl-2,5-diazabicyclo[2.2.1]heptan-7-ol] |
| 100 to 500 nM | < 100 nM | Cc1ccc(S(C)(=O)=O)cc1-c1cnc2c(N)nc(-c3ccc(CN4CCCC4)cc3F)cn12 [Example 487, 6-(2-Fluoro-4-(pyrrolidin-1-ylmethyl)phenyl)-3-(2-methyl-5-(methylsulfonyl)phenyl)imidazo[1,2-a]pyrazin-8-amine] |
| 500 to 2000 nM | < 100 nM | Cc1cnccc1-c1cn2c(-c3cc(S(C)(=O)=O)ccc3C)cnc2c(N)n1 [Example 473, 3-(2-Methyl-5-(methylsulfonyl)phenyl)-6-(3-methylpyridin-4-yl)imidazo[1,2-a]pyrazin-8-amine trifluoroacetate] |
| 100 to 500 nM | < 100 nM | Cc1ccc(S(=O)(=O)N2CCC3(CCC(F)(F)CC3)C2)cc1-c1cnc2c(N)ncnn12 [Example 207, 7-(5-((8,8-Difluoro-2-azaspiro[4.5]decan-2-yl)sulfonyl)-2-methylphenyl)imidazo[2,1-f][1,2,4]triazin-4-amine] |
